SMILES strings stand for the structures.

MRGPRX4, sequence (Q96LA9 whole entry): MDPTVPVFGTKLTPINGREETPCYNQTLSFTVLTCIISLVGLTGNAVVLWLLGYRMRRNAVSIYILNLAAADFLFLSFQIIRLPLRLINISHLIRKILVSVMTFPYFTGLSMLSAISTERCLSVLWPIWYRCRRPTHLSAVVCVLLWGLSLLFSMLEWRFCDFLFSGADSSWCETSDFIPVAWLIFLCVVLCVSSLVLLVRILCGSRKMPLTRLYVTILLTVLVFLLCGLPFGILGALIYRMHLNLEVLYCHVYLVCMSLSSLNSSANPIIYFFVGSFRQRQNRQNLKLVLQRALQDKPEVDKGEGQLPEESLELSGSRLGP

The assay has as its target MRGPRX4 (Homo sapiens, UniProt Q96LA9). Nature of the assay: MRGPR X4 antagonist activity, IP-One Gq HTRF assay in stably transfected HEK cells (versus agonist bilirubin, deoxycholic acid, conjugated bilirubin, urobilin, obeticholic acid or BAR502). The format is cell-based. On the set-up: expressed in transfected cells; host or cells: HEK cells, stably transfected. As to conditions: versus 10 μM Bilirubin agonist; HEK cells expressing human MRGPR X4; read-out: MRGPR4 Antagonist Activity. In a few lines:
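Stably transfected HEK cells expressing human MRGPR X4, seeded overnight, given compounds as 10-point 1:3 curves from 10 uM final top, incubated 1 h at 37° C then 30 min at room temperature. IP-1 measured by IP-One Gq HTRF. IC50 derived from the HTRF ratio.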
For orientation: In TR-FRET formats the signal depends on donor and acceptor labels being close together.
Consider `Cc1cc(COc2ccc3ccccc3c2)nc(C(=O)O)c1` [Compound 41-1, 4-methyl-6-((naphthalen-2-yloxy)methyl)picolinic acid], for which the IC50 is less than 100 nM.

With `Cc1cc(COc2ccc(C(F)(F)F)cc2Cl)nc(C(=O)O)c1` [Compound 41-2], the IC50 is less than 100 nM.

`CCc1cc(COc2ccc3ccccc3c2)nc(C(=O)O)c1` [Compound 42-1, 4-ethyl-6-((naphthalen-2-yloxy)methyl)picolinic acid]: the IC50 is less than 100 nM.

With `CCc1cc(COc2ccc(Cl)c(Cl)c2Cl)nc(C(=O)O)c1` [Compound 42-2], the IC50 was less than 100 nM.

For `N#Cc1cc(COc2ccc(C(F)(F)F)cc2Cl)nc(C(=O)O)c1` [Compound 43-1, 6-((2-chloro-4-(trifluoromethyl)phenoxy)methyl)-4-cyano-pyridine-2-carboxylic acid], the IC50 was less than 100 nM.

With `NC(=O)c1cccc(COc2ccc(C(F)(F)F)cc2Cl)c1` [Compound 45-1, 3-((2-chloro-4-(trifluoromethyl)phenoxy)methyl)benzamide], the IC50 fell in the range of 100 to 500 nM.

As to `FC(F)(F)c1ccc(OCc2cccc(-c3nc[nH]n3)c2)c(Cl)c1` [Compound 45-2, 3-(3-((2-chloro-4-(trifluoromethyl)phenoxy)methyl)phenyl)-1H-1,2,4-triazole], the IC50 was in the range of 500 to 1000 nM.

As for `FC(F)(F)c1ccc(OCc2cccc(-c3ncc[nH]3)c2)c(Cl)c1` [Compound 46-1, 2-(3-((2-chloro-4-(trifluoromethyl)phenoxy)methyl)phenyl)-1H-imidazole], the IC50 lay in the range of 100 to 500 nM.

Consider `FC(F)(F)c1ccc(OCc2cccc(-c3cnc[nH]3)c2)c(Cl)c1` [Compound 47-1, 5-(3-((2-chloro-4-(trifluoromethyl)phenoxy)methyl)phenyl)-1H-imidazole], for which the IC50 fell in the range of 500 to 1000 nM.

As for `FC(F)(F)c1ccc(OCc2cccc(-c3cn[nH]n3)c2)c(Cl)c1` [Compound 48-1, 4-(3-((2-chloro-4-(trifluoromethyl)phenoxy)methyl)phenyl)-2H-1,2,3-triazole], the IC50 is 1000 to 2500 nM.

As for `Cc1noc(-c2cccc(COc3ccc(C(F)(F)F)cc3Cl)c2)n1` [Compound 49-1, 5-(3-((2-chloro-4-(trifluoromethyl)phenoxy)methyl)phenyl)-3-methyl-1,2,4-oxadiazole], the IC50 was more than 2500 nM.

As for `FC(F)c1cccc(COc2ccc(C(F)(F)F)cc2Cl)c1` [Compound 50-1, 2-chloro-1-((3-(difluoromethyl)benzyl)oxy)-4-(trifluoromethyl)benzene], the IC50 lay within 1000 to 2500 nM.

Take `O=C(NCc1ccccc1)c1cccc(COc2ccc(C(F)(F)F)cc2Cl)c1` [Compound 52-1, N-benzyl-3-((2-chloro-4-(trifluoromethyl)phenoxy)methyl)benzamide]: the IC50 lay within 100 to 500 nM.

With `O=C(c1ccc(COc2ccc(C(F)(F)F)cc2Cl)cc1)N1CC2(COC2)C1` [Compound 52-2], the IC50 is more than 2500 nM.

As for `O=C(NCS(=O)(=O)O)c1ccc(COc2ccc(C(F)(F)F)cc2Cl)cc1` [Compound 52-3], the IC50 was 100 to 500 nM.

Consider `O=C(c1ccc(COc2ccc(C(F)(F)F)cc2Cl)cc1)N1CCC2(COC2)C1` [Compound 52-4], for which the IC50 is 1000 to 2500 nM.

Take `O=C(NCCS(=O)(=O)O)c1ccc(COc2ccc(C(F)(F)F)cc2Cl)cc1` [Compound 52-5]: the IC50 was 100 to 500 nM.

Regarding `N#CCNC(=O)c1ccc(COc2ccc(C(F)(F)F)cc2Cl)cc1` [Compound 52-6], the IC50 lay in the range of 100 to 500 nM.

For the compound `CCCCNC(=O)c1cccc(COc2ccc(C(F)(F)F)cc2Cl)c1` [Compound 52-7], the IC50 was 100 to 500 nM.

For `CC(C)NC(=O)c1cccc(COc2ccc(C(F)(F)F)cc2Cl)c1` [Compound 52-8], the IC50 lay within 100 to 500 nM.

As to `COCCNC(=O)c1cccc(COc2ccc(C(F)(F)F)cc2Cl)c1` [Compound 52-9], the IC50 was 500 to 1000 nM.

`CCNC(=O)c1cccc(COc2ccc(C(F)(F)F)cc2Cl)c1` [Compound 52-10]: the IC50 was 100 to 500 nM.

For `O=C(Nc1ccccc1)c1cccc(COc2ccc(C(F)(F)F)cc2Cl)c1` [Compound 52-11], the IC50 lay in the range of 100 to 500 nM.

Take `O=C(NCCCO)c1cccc(COc2ccc(C(F)(F)F)cc2Cl)c1` [Compound 52-12]: the IC50 was 100 to 500 nM.

Regarding `COCCCNC(=O)c1cccc(COc2ccc(C(F)(F)F)cc2Cl)c1` [Compound 52-13], the IC50 is less than 100 nM.

On to `COC1CCN(C(=O)c2cccc(COc3ccc(C(F)(F)F)cc3Cl)c2)CC1` [Compound 52-14], for which the IC50 lay within 1000 to 2500 nM.

As for `O=C(N[C@H]1CC[C@H](O)CC1)c1cccc(COc2ccc(C(F)(F)F)cc2Cl)c1` [Compound 52-15], the IC50 was 500 to 1000 nM.

Take `O=C(NCCO)c1cccc(COc2ccc(C(F)(F)F)cc2Cl)c1` [Compound 52-16]: the IC50 was in the range of 100 to 500 nM.

`CN(C)CCNC(=O)c1cccc(COc2ccc(C(F)(F)F)cc2Cl)c1` [Compound 52-17]: the IC50 was in the range of 500 to 1000 nM.

Turning to `O=C(c1cccc(COc2ccc(C(F)(F)F)cc2Cl)c1)N1CC(O)C1` [Compound 52-18], the IC50 was in the range of 500 to 1000 nM.

Take `O=C(NC1CCCC(O)C1)c1cccc(COc2ccc(C(F)(F)F)cc2Cl)c1` (centres unmarked) [Compound 52-19]: the IC50 lay in the range of 500 to 1000 nM.

For the compound `CS(=O)(=O)NC(=O)c1cccc(COc2ccc(C(F)(F)F)cc2Cl)c1` [Compound 52-20], the IC50 fell in the range of 100 to 500 nM.

On to `O=C(c1cccc(COc2ccc(C(F)(F)F)cc2Cl)c1)N1CCCC(O)C1` (centres unmarked) [Compound 52-21], for which the IC50 fell in the range of 500 to 1000 nM.

For the compound `NC(=O)CNC(=O)c1cccc(COc2ccc(C(F)(F)F)cc2Cl)c1` [Compound 52-22], the IC50 fell in the range of 100 to 500 nM.

Consider `O=C(NC1CCCC1)c1cccc(COc2ccc(C(F)(F)F)cc2Cl)c1` [Compound 52-23], for which the IC50 fell in the range of 100 to 500 nM.

For the compound `O=C(NC1CCC1)c1cccc(COc2ccc(C(F)(F)F)cc2Cl)c1` [Compound 52-24], the IC50 is 100 to 500 nM.

As for `O=C(c1cccc(COc2ccc(C(F)(F)F)cc2Cl)c1)N1CCOC1` [Compound 52-25], the IC50 fell in the range of 500 to 1000 nM.

Take `CNC(=O)c1cccc(COc2ccc(C(F)(F)F)cc2Cl)c1` [Compound 52-26]: the IC50 lay in the range of 100 to 500 nM.

On to `CNC(=O)CNC(=O)c1cccc(COc2ccc(C(F)(F)F)cc2Cl)c1` [Compound 52-27], for which the IC50 was in the range of 500 to 1000 nM.

Consider `CNCCNC(=O)c1cccc(COc2ccc(C(F)(F)F)cc2Cl)c1` [Compound 53-1, 3-((2-chloro-4-(trifluoromethyl)phenoxy)methyl)-N-(2-(methylamino)ethyl)benzamide], for which the IC50 fell in the range of 500 to 1000 nM.

On to `NCCNC(=O)c1cccc(COc2ccc(C(F)(F)F)cc2Cl)c1` [Compound 53-2], for which the IC50 was in the range of 1000 to 2500 nM.

For the compound `CC(C)[C@H](NC(=O)c1cccc(COc2ccc(C(F)(F)F)cc2Cl)c1)C(=O)O` [Compound 54-1, (3-((2-chloro-4-(trifluoromethyl)phenoxy)methyl)benzoyl)-L-valine], the IC50 was 100 to 500 nM.

On to `O=C(O)CNC(=O)c1cccc(COc2ccc(C(F)(F)F)cc2Cl)c1` [Compound 54-2], for which the IC50 was less than 100 nM.

For the compound `CC(C)(NC(=O)c1cccc(COc2ccc(C(F)(F)F)cc2Cl)c1)C(=O)O` [Compound 54-3], the IC50 fell in the range of 100 to 500 nM.

For `O=C(N[C@@H](Cc1c[nH]c2ccccc12)C(=O)O)c1cccc(COc2ccc(C(F)(F)F)cc2Cl)c1` [Compound 54-5], the IC50 is 100 to 500 nM.

In the case of `O=C(N[C@@H](Cc1ccc(O)cc1)C(=O)O)c1cccc(COc2ccc(C(F)(F)F)cc2Cl)c1` [Compound 54-7], the IC50 was 100 to 500 nM.

As to `C[C@@H](O)[C@H](NC(=O)c1cccc(COc2ccc(C(F)(F)F)cc2Cl)c1)C(=O)O` [Compound 54-8], the IC50 fell in the range of 500 to 1000 nM.

Regarding `O=C(N[C@@H](CO)C(=O)O)c1cccc(COc2ccc(C(F)(F)F)cc2Cl)c1` [Compound 54-9], the IC50 is 100 to 500 nM.

For the compound `O=C(O)c1ccc(NC(=O)c2cccc(COc3ccc(C(F)(F)F)cc3Cl)c2)cc1` [Compound 54-10], the IC50 lay within 500 to 1000 nM.

As to `O=C(O)c1cccc(NC(=O)c2cccc(COc3ccc(C(F)(F)F)cc3Cl)c2)c1` [Compound 54-11], the IC50 was more than 2500 nM.

On to `NC(=O)C[C@H](NC(=O)c1cccc(COc2ccc(C(F)(F)F)cc2Cl)c1)C(=O)O` [Compound 55-1, (3-((2-chloro-4-(trifluoromethyl)phenoxy)methyl)benzoyl)-L-asparagine], for which the IC50 was in the range of 100 to 500 nM.

As for `O=C(N[C@@H](Cc1c[nH]cn1)C(=O)O)c1cccc(COc2ccc(C(F)(F)F)cc2Cl)c1` [Compound 55-2], the IC50 was 500 to 1000 nM.

Take `NC(=O)CC[C@H](NC(=O)c1cccc(COc2ccc(C(F)(F)F)cc2Cl)c1)C(=O)O` [Compound 55-3]: the IC50 is 100 to 500 nM.

Consider `CCOC(=O)c1cccc(COc2ccc(C(F)(F)F)cc2Cl)c1F` [Compound 56-1, ethyl 3-((2-chloro-4-(trifluoromethyl)phenoxy)methyl)-2-fluorobenzoate], for which the IC50 lay in the range of 100 to 500 nM.

For the compound `CCOC(=O)c1cccc(COc2ccc(C(F)(F)F)cc2Cl)n1` [Compound 56-2], the IC50 is less than 100 nM.

Consider `Cc1cc(CNc2ccc(C(F)(F)F)cc2Cl)nc(C(=O)O)c1` [Compound 57-1, 6-(((2-chloro-4-(trifluoromethyl)phenyl)amino)methyl)-4-methylpicolinic acid], for which the IC50 is less than 100 nM.

As for `O=C1CC(c2cccc(COc3ccc(C(F)(F)F)cc3Cl)c2)N1` (centres unmarked) [Compound 59-1, 4-(3-((2-chloro-4-(trifluoromethyl)phenoxy)methyl)phenyl)azetidin-2-one], the IC50 was 500 to 1000 nM.

With `N#Cc1cc(C#Cc2ccc(C(F)(F)F)cc2Cl)cc(C(=O)O)c1` [Compound 60-1, 3-((2-chloro-4-(trifluoromethyl)phenyl)ethynyl)-5-cyanobenzoic acid], the IC50 fell in the range of 100 to 500 nM.

Consider `N#Cc1cc(CCc2ccc(C(F)(F)F)cc2Cl)cc(C(=O)O)c1` [Compound 61-1, 3-(2-chloro-4-(trifluoromethyl)phenethyl)-5-cyanobenzoic acid], for which the IC50 was in the range of 100 to 500 nM.

These data come from US11840521B2, “Modulators of Mas-related G-protein receptor X4 and related products and methods” (Escient Pharmaceuticals, Inc., priority 2019, dated 2023).
